Results on 1 compound are retold here after patent US11426422B2, “SHP2 inhibitors and methods of use thereof” (Research Development Foundation, priority 2018, dated 2022).

Each structure is given as a SMILES string.

The test system of one assay is IR in liver sections. Nature of the assay: IR staining at the PM in liver sections of HFD-fed mice. The assay is classed as in vivo. Conditions: 60 mg/kg oral for 6 days. The procedure:
(§1) (FIG. 3A) Glucose tolerance test in 14 h fasted male mice fed a HFD for 5 weeks. […] At 1 day after drug treatment, glucose tolerance test was performed. Mean±SEM. (FIG. 3B) Insulin tolerance test of mice treated as described in FIG. 3A. Mean±SEM. […] The liver sections were stained with anti-IR (red) and DAPI (blue). Scale bars, 5 μm. (FIG. 3D) Quantification of the ratios of PM and IC IR signals of the livers in C (mean±SD; *p<0.0001). […] Cell lysates were blotted with the indicated antibodies.
The IR staining at the PM in liver sections from mice fed with HFD was weak, and insulin stimulation further reduced it and caused IR endocytosis (FIGS. 3C and D).
The fixation, histological analysis, and immunohistochemistry of mouse tissues were performed as described previously (Choi et al., 2016). For human patient sample analysis, the deparaffinized sections were subjected to antigen retrieval with 10 mM sodium citrate (pH 6.0), incubated with 0.3% H2O2, blocked with 0.3% BSA, and then incubated first with anti-IR (CT3, Millipore®, 1:100) and anti-ZO1 (Thermo Scientific®, 1:200) antibodies and then with secondary antibodies (AlexaFluor® 568 goat anti-mouse and AlexaFluor® 488 goat anti-rabbit; Molecular Probes®). […] The total cell numbers and numbers of IR PM-positive cells were counted at least twice for individual images. Over 100 cells were analyzed for each patient samples. […]

A further assay deals with primary hepatocytes. The assay can be described thus: insulin signaling in primary hepatocytes (quantitative Western blot). The assay is classed as cell-based, mice. Particulars: 10 μM for 2 h, then 100 nM insulin. The procedure: as §1
To examine the effect of SHP2 inhibition on insulin signaling in freshly isolated primary hepatocytes, the activating phosphorylation of IR (pY1189/1190), AKT (pT308), and ERK1/2 (pT202/Y204, pERK1/2) in the hepatocytes was monitored (FIG. 3E and FIG. 8B).
Primary hepatocytes were isolated from 2-month-old female mice with a standard two-step collagenase perfusion procedure. Cells were plated on collagen-coated dishes and incubated in attachment medium (Williams' E Medium supplemented with 5% (v/v) FBS, 10 nM insulin, 10 nM dexamethasone, and 1% (v/v) penicillin/streptomycin). After 2-4 h, the medium was changed to low-glucose DMEM supplemented with 5% (v/v) FBS, 10 nM dexamethasone, 10 nM insulin, 100 nM triiodothyronine, and 1% (v/v) penicillin/streptomycin.
Cells were incubated with the cell lysis buffer [50 mM HEPES (pH 7.4), 150 mM NaCl, 10% (v/v) Glycerol, 1% (v/v) Triton X-100, 1 mM EDTA, 100 mM sodium fluoride, 2 mM sodium orthovanadate, 20 mM sodium pyrophosphate, 0.5 mM dithiothreitol (DTT), 2 mM phenylmethylsulfonyl fluoride (PMSF)] supplemented with protease inhibitors (Roche®) and PhosSTOP™ (Roche®) on ice for 1 h. The cell lysates were cleared by centrifugation and incubated with antibody-conjugated beads. The beads were washed, and the bound proteins were eluted with the SDS sample buffer and analyzed by SDS-PAGE and Western blotting. For quantitative Western blots, anti-rabbit immunoglobulin G (IgG) (H+L) (Dylight 800 or 680 conjugates) and anti-mouse IgG (H+L) (Dylight 800 or 680 conjugates) (Cell Signaling) were used as secondary antibodies. […]
A general note: A western blot detects proteins with antibodies after separation by electrophoresis.

Turning to `CC1(N)CCN(c2cnc(-c3cccc(Cl)c3Cl)c(N)n2)CC1` [SHP099], in the assay with IR in liver sections (5 U insulin via inferior vena cava), the “insulin-activated IR endocytosis in liver” value is on record as “blocked insulin-activated IR endocytosis”. The “IR signal at the PM in liver” value in the assay on IR in liver sections (in the absence of insulin) was “elevated the IR signal at the PM”. In addition, in the assay with primary hepatocytes, the “activation of the MAPK pathway by insulin (pERK1/2)” value is “inhibited the activation of the MAPK pathway by insulin”; the “insulin-triggered activating phosphorylation of AKT (pT308)” value was “significantly increased and prolonged”; the “insulin-triggered activating phosphorylation of IR (pY1189/1190)” value is “significantly increased and prolonged”.
